Experimental data reported in the NIST ThermoML archive (doi:10.1021/je101232g).

Settings: Liquid

CCCCCCCCCCCCCC[P+](CCCCCC)(CCCCCC)CCCCCC.[Cl-] [trihexyl(tetradecyl)phosphonium chloride]
mass density [kg/m3]
Settings	283.15 K	293.15 K	303.15 K	313.15 K	323.15 K	333.15 K
100 kPa	898.4	892.4	886.5	880.6	874.8	868.9
1000 kPa	898.8	892.9	887	881.1	875.3	869.4
2000 kPa	899.3	893.4	887.5	881.7	875.8	870
3000 kPa	899.8	893.9	888	882.2	876.4	870.6
4000 kPa	900.3	894.4	888.5	882.7	876.9	871.1
5000 kPa	900.7	894.9	889.1	883.3	877.6	871.8
10000 kPa	903.1	897.3	891.5	885.9	880.2	874.5
15000 kPa	905.3	899.6	894	888.4	882.8	877.3
20000 kPa	907.5	901.8	896.3	890.8	885.3	879.9
25000 kPa	909.6	904	898.6	893.2	887.8	882.5
30000 kPa	911.7	906.3	900.8	895.5	890.1	884.9
35000 kPa	913.7	908.3	903	897.7	892.6	887.3
40000 kPa	915.7	910.3	905.1	899.9	894.8	889.6
45000 kPa	917.6	912.4	907.2	902.1	897	892
